Experimental data from BigSolDB 2.1.

Q: With `CCCSc1nc(N[C@@H]2C[C@H]2c2ccc(F)c(F)c2)c2nnn([C@@H]3C[C@H](OCCO)[C@@H](O)[C@H]3O)c2n1` as the compound, how does the solubility (mole fraction) (in 2-butanone, 273.15 K) read?
A: Its solubility (mole fraction) is 0.0218.

Q: What about the solubility (mole fraction) (in 2-butanone, 278.15 K) of the same compound?
A: The solubility (mole fraction) was 0.0269.

Q: And the solubility (mole fraction) (in 2-butanone, 283.15 K)?
A: The solubility (mole fraction) was 0.0321.

Q: And the solubility (mole fraction) (in 2-butanone, 288.15 K)?
A: The solubility (mole fraction) was 0.038.

Q: What about the solubility (mole fraction) (in 2-butanone, 293.15 K) of the same compound?
A: Its solubility (mole fraction) is 0.0439.

Q: What about the solubility (mole fraction) (in 2-butanone, 298.15 K) of the same compound?
A: Its solubility (mole fraction) is 0.051.

Q: What about the solubility (mole fraction) (in 2-butanone, 303.15 K) of the same compound?
A: Its solubility (mole fraction) is 0.0584.

Q: What about the solubility (mole fraction) (in 2-butanone, 308.15 K) of the same compound?
A: Its solubility (mole fraction) is 0.0673.

Q: And the solubility (mole fraction) (in 2-butanone, 313.15 K)?
A: The solubility (mole fraction) was 0.0776.

Q: And the solubility (mole fraction) (in acetonitrile, 273.15 K)?
A: The solubility (mole fraction) was 0.000876.

Q: And the solubility (mole fraction) (in acetonitrile, 278.15 K)?
A: Its solubility (mole fraction) is 0.00115.

Q: And the solubility (mole fraction) (in acetonitrile, 283.15 K)?
A: Its solubility (mole fraction) is 0.00144.

Q: What about the solubility (mole fraction) (in acetonitrile, 288.15 K) of the same compound?
A: Its solubility (mole fraction) is 0.00179.

Q: And the solubility (mole fraction) (in acetonitrile, 293.15 K)?
A: The solubility (mole fraction) was 0.00217.

Q: And the solubility (mole fraction) (in acetonitrile, 298.15 K)?
A: Its solubility (mole fraction) is 0.0026.

Q: What about the solubility (mole fraction) (in acetonitrile, 303.15 K) of the same compound?
A: Its solubility (mole fraction) is 0.00309.

Q: And the solubility (mole fraction) (in acetonitrile, 308.15 K)?
A: Its solubility (mole fraction) is 0.00359.

Q: And the solubility (mole fraction) (in acetonitrile, 313.15 K)?
A: The solubility (mole fraction) was 0.00416.

Q: And the solubility (mole fraction) (in cyclohexanone, 273.15 K)?
A: The solubility (mole fraction) was 0.0265.

Q: And the solubility (mole fraction) (in cyclohexanone, 278.15 K)?
A: The solubility (mole fraction) was 0.0316.

Q: And the solubility (mole fraction) (in cyclohexanone, 283.15 K)?
A: Its solubility (mole fraction) is 0.0374.

Q: And the solubility (mole fraction) (in cyclohexanone, 288.15 K)?
A: The solubility (mole fraction) was 0.0437.

Q: What about the solubility (mole fraction) (in cyclohexanone, 293.15 K) of the same compound?
A: The solubility (mole fraction) was 0.051.

Q: And the solubility (mole fraction) (in cyclohexanone, 298.15 K)?
A: Its solubility (mole fraction) is 0.0578.

Q: What about the solubility (mole fraction) (in cyclohexanone, 303.15 K) of the same compound?
A: Its solubility (mole fraction) is 0.0661.

Q: And the solubility (mole fraction) (in cyclohexanone, 308.15 K)?
A: The solubility (mole fraction) was 0.0744.

Q: What about the solubility (mole fraction) (in cyclohexanone, 313.15 K) of the same compound?
A: Its solubility (mole fraction) is 0.0832.

Q: What about the solubility (mole fraction) (in ethanol, 273.15 K) of the same compound?
A: The solubility (mole fraction) was 0.00315.

Q: What about the solubility (mole fraction) (in ethanol, 278.15 K) of the same compound?
A: The solubility (mole fraction) was 0.0041.

Q: And the solubility (mole fraction) (in ethanol, 283.15 K)?
A: The solubility (mole fraction) was 0.00503.

Q: And the solubility (mole fraction) (in ethanol, 288.15 K)?
A: Its solubility (mole fraction) is 0.00625.

Q: And the solubility (mole fraction) (in ethanol, 293.15 K)?
A: Its solubility (mole fraction) is 0.00747.

Q: What about the solubility (mole fraction) (in ethanol, 298.15 K) of the same compound?
A: The solubility (mole fraction) was 0.00881.

Q: And the solubility (mole fraction) (in ethanol, 303.15 K)?
A: The solubility (mole fraction) was 0.0105.

Q: What about the solubility (mole fraction) (in ethanol, 308.15 K) of the same compound?
A: Its solubility (mole fraction) is 0.0125.

Q: And the solubility (mole fraction) (in ethanol, 313.15 K)?
A: Its solubility (mole fraction) is 0.0149.

Q: What about the solubility (mole fraction) (in ethyl acetate, 273.15 K) of the same compound?
A: The solubility (mole fraction) was 0.00409.

Q: And the solubility (mole fraction) (in ethyl acetate, 278.15 K)?
A: Its solubility (mole fraction) is 0.00504.

Q: And the solubility (mole fraction) (in ethyl acetate, 283.15 K)?
A: Its solubility (mole fraction) is 0.00608.

Q: What about the solubility (mole fraction) (in ethyl acetate, 288.15 K) of the same compound?
A: The solubility (mole fraction) was 0.00716.

Q: What about the solubility (mole fraction) (in ethyl acetate, 293.15 K) of the same compound?
A: Its solubility (mole fraction) is 0.00855.

Q: And the solubility (mole fraction) (in ethyl acetate, 298.15 K)?
A: The solubility (mole fraction) was 0.0101.

Q: And the solubility (mole fraction) (in ethyl acetate, 303.15 K)?
A: Its solubility (mole fraction) is 0.0118.

Q: And the solubility (mole fraction) (in ethyl acetate, 308.15 K)?
A: Its solubility (mole fraction) is 0.0135.

Q: And the solubility (mole fraction) (in ethyl acetate, 313.15 K)?
A: Its solubility (mole fraction) is 0.0157.

Q: What about the solubility (mole fraction) (in isobutanol, 273.15 K) of the same compound?
A: The solubility (mole fraction) was 0.00148.

Q: And the solubility (mole fraction) (in isobutanol, 278.15 K)?
A: Its solubility (mole fraction) is 0.00176.

Q: And the solubility (mole fraction) (in isobutanol, 283.15 K)?
A: Its solubility (mole fraction) is 0.00209.

Q: And the solubility (mole fraction) (in isobutanol, 288.15 K)?
A: Its solubility (mole fraction) is 0.00243.

Q: And the solubility (mole fraction) (in isobutanol, 293.15 K)?
A: The solubility (mole fraction) was 0.00284.

Q: And the solubility (mole fraction) (in isobutanol, 298.15 K)?
A: Its solubility (mole fraction) is 0.00324.

Q: What about the solubility (mole fraction) (in isobutanol, 303.15 K) of the same compound?
A: Its solubility (mole fraction) is 0.00373.

Q: What about the solubility (mole fraction) (in isobutanol, 308.15 K) of the same compound?
A: Its solubility (mole fraction) is 0.00425.

Q: What about the solubility (mole fraction) (in isobutanol, 313.15 K) of the same compound?
A: Its solubility (mole fraction) is 0.00484.

Q: And the solubility (mole fraction) (in isopropanol, 273.15 K)?
A: Its solubility (mole fraction) is 0.00251.

Q: And the solubility (mole fraction) (in isopropanol, 278.15 K)?
A: Its solubility (mole fraction) is 0.00286.

Q: What about the solubility (mole fraction) (in isopropanol, 283.15 K) of the same compound?
A: Its solubility (mole fraction) is 0.00325.

Q: And the solubility (mole fraction) (in isopropanol, 288.15 K)?
A: Its solubility (mole fraction) is 0.00364.

Q: What about the solubility (mole fraction) (in isopropanol, 293.15 K) of the same compound?
A: Its solubility (mole fraction) is 0.00404.

Q: And the solubility (mole fraction) (in isopropanol, 298.15 K)?
A: The solubility (mole fraction) was 0.00446.

Q: What about the solubility (mole fraction) (in isopropanol, 303.15 K) of the same compound?
A: The solubility (mole fraction) was 0.00496.

Q: And the solubility (mole fraction) (in isopropanol, 308.15 K)?
A: Its solubility (mole fraction) is 0.00547.

Q: What about the solubility (mole fraction) (in isopropanol, 313.15 K) of the same compound?
A: Its solubility (mole fraction) is 0.00599.

Q: And the solubility (mole fraction) (in methanol, 273.15 K)?
A: The solubility (mole fraction) was 0.00494.

Q: And the solubility (mole fraction) (in methanol, 278.15 K)?
A: Its solubility (mole fraction) is 0.00615.

Q: And the solubility (mole fraction) (in methanol, 283.15 K)?
A: The solubility (mole fraction) was 0.00741.

Q: What about the solubility (mole fraction) (in methanol, 288.15 K) of the same compound?
A: The solubility (mole fraction) was 0.0092.

Q: What about the solubility (mole fraction) (in methanol, 293.15 K) of the same compound?
A: Its solubility (mole fraction) is 0.0114.

Q: What about the solubility (mole fraction) (in methanol, 298.15 K) of the same compound?
A: Its solubility (mole fraction) is 0.014.

Q: And the solubility (mole fraction) (in methanol, 303.15 K)?
A: The solubility (mole fraction) was 0.0169.

Q: And the solubility (mole fraction) (in methanol, 308.15 K)?
A: Its solubility (mole fraction) is 0.0203.

Q: What about the solubility (mole fraction) (in methanol, 313.15 K) of the same compound?
A: The solubility (mole fraction) was 0.0239.

Q: And the solubility (mole fraction) (in n-butanol, 273.15 K)?
A: The solubility (mole fraction) was 0.00289.

Q: And the solubility (mole fraction) (in n-butanol, 278.15 K)?
A: Its solubility (mole fraction) is 0.00363.

Q: And the solubility (mole fraction) (in n-butanol, 283.15 K)?
A: The solubility (mole fraction) was 0.0045.

Q: What about the solubility (mole fraction) (in n-butanol, 288.15 K) of the same compound?
A: The solubility (mole fraction) was 0.00542.

Q: And the solubility (mole fraction) (in n-butanol, 293.15 K)?
A: The solubility (mole fraction) was 0.00656.

Q: And the solubility (mole fraction) (in n-butanol, 298.15 K)?
A: Its solubility (mole fraction) is 0.00768.

Q: What about the solubility (mole fraction) (in n-butanol, 303.15 K) of the same compound?
A: Its solubility (mole fraction) is 0.00895.

Q: And the solubility (mole fraction) (in n-butanol, 308.15 K)?
A: Its solubility (mole fraction) is 0.0103.

Q: What about the solubility (mole fraction) (in n-butanol, 313.15 K) of the same compound?
A: Its solubility (mole fraction) is 0.0118.

Q: And the solubility (mole fraction) (in n-octanol, 273.15 K)?
A: Its solubility (mole fraction) is 0.0021.

Q: And the solubility (mole fraction) (in n-octanol, 278.15 K)?
A: Its solubility (mole fraction) is 0.00233.

Q: And the solubility (mole fraction) (in n-octanol, 283.15 K)?
A: Its solubility (mole fraction) is 0.00263.

Q: And the solubility (mole fraction) (in n-octanol, 288.15 K)?
A: The solubility (mole fraction) was 0.00292.

Q: What about the solubility (mole fraction) (in n-octanol, 293.15 K) of the same compound?
A: The solubility (mole fraction) was 0.00327.

Q: And the solubility (mole fraction) (in n-octanol, 298.15 K)?
A: Its solubility (mole fraction) is 0.00367.

Q: What about the solubility (mole fraction) (in n-octanol, 303.15 K) of the same compound?
A: Its solubility (mole fraction) is 0.00406.

Q: And the solubility (mole fraction) (in n-octanol, 308.15 K)?
A: Its solubility (mole fraction) is 0.00456.

Q: And the solubility (mole fraction) (in n-octanol, 313.15 K)?
A: Its solubility (mole fraction) is 0.0051.

Q: What about the solubility (mole fraction) (in n-propanol, 273.15 K) of the same compound?
A: The solubility (mole fraction) was 0.00268.

Q: What about the solubility (mole fraction) (in n-propanol, 278.15 K) of the same compound?
A: The solubility (mole fraction) was 0.00327.

Q: And the solubility (mole fraction) (in n-propanol, 283.15 K)?
A: Its solubility (mole fraction) is 0.00389.

Q: What about the solubility (mole fraction) (in n-propanol, 288.15 K) of the same compound?
A: The solubility (mole fraction) was 0.00462.

Q: What about the solubility (mole fraction) (in n-propanol, 293.15 K) of the same compound?
A: Its solubility (mole fraction) is 0.00535.

Q: What about the solubility (mole fraction) (in n-propanol, 298.15 K) of the same compound?
A: Its solubility (mole fraction) is 0.00612.

Q: And the solubility (mole fraction) (in n-propanol, 303.15 K)?
A: The solubility (mole fraction) was 0.00692.

Q: And the solubility (mole fraction) (in n-propanol, 308.15 K)?
A: Its solubility (mole fraction) is 0.00776.

Q: What about the solubility (mole fraction) (in n-propanol, 313.15 K) of the same compound?
A: Its solubility (mole fraction) is 0.00872.

Q: What about the solubility (mole fraction) (in toluene, 273.15 K) of the same compound?
A: The solubility (mole fraction) was 3e-05.

Q: And the solubility (mole fraction) (in toluene, 278.15 K)?
A: The solubility (mole fraction) was 3.8e-05.

Q: And the solubility (mole fraction) (in toluene, 283.15 K)?
A: The solubility (mole fraction) was 4.9e-05.

Q: What about the solubility (mole fraction) (in toluene, 288.15 K) of the same compound?
A: Its solubility (mole fraction) is 6.3e-05.

Q: And the solubility (mole fraction) (in toluene, 293.15 K)?
A: Its solubility (mole fraction) is 8e-05.

Q: And the solubility (mole fraction) (in toluene, 298.15 K)?
A: Its solubility (mole fraction) is 0.000102.

Q: What about the solubility (mole fraction) (in toluene, 303.15 K) of the same compound?
A: The solubility (mole fraction) was 0.00013.

Q: And the solubility (mole fraction) (in toluene, 308.15 K)?
A: The solubility (mole fraction) was 0.00016.

Q: What about the solubility (mole fraction) (in toluene, 313.15 K) of the same compound?
A: Its solubility (mole fraction) is 0.000196.
